Test results as given in patent US20170304002A1, “ELECTROMANIPULATION OF PROTEINS USING NANOSECOND PULSED ELECTRIC FIELDS” (Old Dominion University, priority 2014, published 2017).

Tested on: Jurkat A3 cells
Assay: nsPEF-induced dissipation of mitochondria membrane potential (ΔΨm), TMRE flow cytometry
Assay type: cell-based
Procedure: Wildtype Jurkat T-lymphocytes (clone A3) were obtained from ATCC (Manassas, Va.) and cultured in RPMI 1640 medium (ATCC) including about 10% fetal bovine serum (FBS) (Atlanta Biologist). N1-S1 HCC cells were obtained from ATCC and cultured in Iscove's Modified Delbecco's Medium including FBS. Both cell lines were maintained in media including about 1% L-glutamine and about 1% penicillin and streptomycin. Cells were treated in cuvettes in cell culture media with nsPEFs using pulse generators, such as, for example as described in Transient features in nanosecond pulsed electric fields differentially modulate mitochondria and viability, PLoS One 7 (2012).
Loss in ΔΨm was determined by staining cells with either 2 μM JC-1 (5′,6, 6′-tetrachloro-1,1′,3,3′-tetraethylbenzimidazole-carbocyanideiodine, Molecular Probes, Eugene, Oreg., USA), where JC-1 changes from red to green when ΔΨm decreases (data not shown) or with 200 […] TMRE (tetramethylrhodamine ethyl ester, Immunochemistry Technologies LLC, Bloomington, Minn.), where TMRE red emissions decrease when ΔΨm decreases. To determine effects of Ca^2+ on ΔΨm, cells were pre-incubated with or without 20 μM BAPTA-AM and/or 5 mM EGTA for about 30 min before nsPEF treatment. The ΔΨm was determined about 10 min after treatment with nsPEFs. The TMRE red fluorescence was determined (10,000 cells) on a Becton Dickinson FacsAria flow cytometer. Although data shown are with TMRE, near identical results were obtained with JC-1. […]
Jurkat cells (A3 clone) were pre-incubated with TMRE (200 nM) for 20 min. […] Cell were then analyzed by flow cytometry 10 min after treatment for red (TMRE, ΔΨm) fluorescent and expressed as percent cells showing fluorescence (Y-axis) at each electric field strength (X-axis). In the presence of 3 mM Ca^2+ (absence of EGTA) there was an electric field-dependent decrease in cells expressing a high ΔΨm as indicated by decreases in TMRE fluorescence. […] Statistical significance was determined by the paired Student's t-test (p<0.05; n=3). […]

Compound | effect on nsPEF-induced loss of ΔΨm (percent cells showing TMRE fluorescence) (30 min pre-incubation, EGTA 5 mM, BAPTA-AM 20 μM, ten 60 ns pulses, all electric fields up to 60 kV/cm, 10 min after treatment) | block of nsPEF-induced loss of ΔΨm at high electric field (electric field ≧40 kV/cm, EGTA 5 mM, BAPTA-AM 20 μM, ten 60 ns pulses) | chelation of Ca2+ influx from the extracellular environment by BAPTA-AM alone (BAPTA-AM 20 μM alone, data not shown)
O=C(O)CN(CCOCCOCCN(CC(=O)O)CC(=O)O)CC(=O)O [EGTA] | prevented losses in ΔΨm | neither EGTA nor EGTA/BAPTA completely blocked loss of ΔΨm | 
CC(=O)OCOC(=O)CN(CC(=O)OCOC(C)=O)c1ccccc1OCCOc1ccccc1N(CC(=O)OCOC(C)=O)CC(=O)OCOC(C)=O [BAPTA-AM] |  |  | not sufficient to chelate influxes of Ca^2+ from the extracellular environment
